From patent US5242945A, “Tetronic and thiotetronic acid derivatives as phospholipase A2 inhibitors” (American Home Products Corporation, priority 1991, dated 1993)
Where two headings read alike, the source gives them in different places.

Legend:
cyclooxygenase (PGE2) = assay: resident murine peritoneal macrophage assay, PGE2; format: cell-based, mouse (Swiss Webster); conditions: for inhibition at 0.5 µM / inhibition at 1 µM: read-out: PGE2 zymosan % Inhibition
Method: (§1) The ability of the compounds of the invention to act as inhibitors of the enzymes 5-lipoxygenase and cyclooxygenase is measured in the resident murine peritoneal macrophage assay.
Resident peritoneal macrophages are collected from female Swiss Webster mice (49 days old, 20-25 gms, Buckshire) by lavaging with 7-8 ml Hanks Balanced Salt Solution (HBSS) without Ca^++ and Mg^++ (GIBCO). The lavage fluid from several mice is pooled and centrifuged at 4° C. for 10 minutes at 400 xg. The cell pellet is resuspended in Medium 199 (GIBCO) with HEPES buffer containing 100 μg/ml gentamicin. Two ml of the cell suspension (4×10^6 cells) are then plated on 35 mm culture dishes (Nunc).
A macrophage monolayer is established after a 1-1.5 hour incubation of the cells at 37° C. in an atmosphere of […] and 5% CO2. The monolayers are washed 2× with 2 ml HBDSS, containing Ca^++ and Mg^++ after which 2 ml Medium 199 supplemented with 10% freshly thawed heat-inactivated fetal bovine serum and 100 μg/ml gentamicin is added for an overnight incubation.
(§2) Residual serum and cellular debris are removed from the monolayers by washing 3× with 2 ml HBSS containing Ca^++ and Mg^++. Macrophages are preincubated for 5 minutes with 1 ml serum-free M199 containing 10 μl dimethyl sulfoxide (DMSO) vehicle or test compound prior to cell activation with zymosan ([…]) or arachidonic acid (AA) (2 μM). After 2 hours, the supernatants are removed and either assayed for LTC4 and PGE2 by radioimmunoassay (RIA) directly or stored at -20° C. In all cases, results are expressed as ng metabolite/4×10^6 cells.
(§3) Raw data (dpm) may be stored directly onto an "Autostart" tape using the HP85 in room C-096. The raw data are converted to ng metabolite/4-10^6cells using the standard curve by a "RIANAL" program (HP85) or a "NONLIN" program (HP9816). Results are then expressed as percent inhibition of zymosan induced, leukotriene or prostaglandin synthesis (control) using the equation: [formula]

5-lipoxygenase (LTC4) = assay: resident murine peritoneal macrophage assay, LTC4; format: cell-based, mouse (Swiss Webster)
Method: as §1
Resident peritoneal macrophages are collected from female Swiss Webster mice (49 days old, 20-25 gms, Buckshire) by lavaging with 7-8 ml Hanks Balanced Salt Solution (HBSS) without Ca^++ and Mg^++ (GIBCO). The lavage fluid from several mice is pooled and centrifuged at 4° C. for 10 minutes at 400 xg.
as §2, §3

human platelet PLA2 = target: T1, human platelet PLA2 (Homo sapiens, UniProt P14555); assay: in vitro isolated phospholipase A2 assay, human platelet PLA2; format: biochemical; conditions: at 10 μM; + values given without explanation; read-out: % Inhibition HP (human platelet)
T1 construct: platelet acid extract PLA2; from tissue; host or cells: human platelets, semipurified acid extract
T1 sequence (P14555 21-144): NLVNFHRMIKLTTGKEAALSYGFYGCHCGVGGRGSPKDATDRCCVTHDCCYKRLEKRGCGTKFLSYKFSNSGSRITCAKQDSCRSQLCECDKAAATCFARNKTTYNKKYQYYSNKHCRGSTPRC
Method: (§4) The compounds of the invention are tested in an in vitro isolated phospholipase A2 assay to determine the ability of the test compounds to inhibit the release of arachidonic acid from an arachidonic acid-containing substrate by the action of phospholipase A2 enzyme from human and non-human sources.
(§5) Into a 15 mL polypropylene tube are added the following:
(§6) ^3 H-AA E. coli substrate^1
(§7) Tris-HCl (0.5 M) pH 7.5^3
(§8) PLA2 25 Volume yielding 12%
(§9) 100 hydrolysis in 10 min.
(§10) *pre-incubate at room temperature 30 min prior to substrate addition.
(§11) ^6 Two human PLA2 enzymes are used: a) Semipurified human
(§12) platelet acid extract PLA2 (in 10 mM sodium acetate buffer, pH 4.5).
(§13) Remove protein precipitate by centrifugation at about 2200 rpm for 10
(§14) minutes. b) Purified human synovial fluid.
(§15) Incubate the 100 μL reaction mixture for 10 minutes at 37° C. in a shaking water bath. The reaction is terminated by the addition of 2 mL tetrahydrofuran, followed by vortexing. NH2 columns (100 μg/mL--Analytichem International) are conditioned with 0.5 mL tetrahydrofuran followed by 0.5 mL tetrahydrofuran/water (2 mL:0.1 mL, v/v).
(§16) The sample is loaded onto the columns and slowly drawn through them. The hydrolyzed arachidonic acid retained in the columns is eluted therefrom with 1 mL tetrahydrofuran/glacial acetic acid (2%). The arachidonic acid is transferred to scintillation vials and quantitated by β-counting analysis. A "total counts" sample is prepared by pipetting 25 μL ^3 H-arachidonate E. coli directly into a scintillation vial to which is added 1 mL tetrahydrofuran. 10 mL aquasol (scintillation cocktail) is added to all samples.

[1] = target: T2, human synovial fluid PLA2 (Homo sapiens, UniProt P14555); assay: in vitro isolated phospholipase A2 assay, human synovial fluid PLA2; format: biochemical; conditions: at 10 μM; + values given without explanation; read-out: % Inhibition HSF (human synovial fluid)
T2 construct: Purified human synovial fluid; from tissue; host or cells: human synovial fluid
T2 sequence (P14555 21-144): T1 sequence (P14555 21-144)
Method: as §4, §5, §6, §7, §8, §9, §10, §11, §12, §13, §14, §15, §16

[2] = system: purified PLA2, from the diamond back cotton mouth snake (A. piscivorus piscivorus); assay: in vivo PLA2 murine paw edema assay; set-up: species or system A. piscivorus piscivorus PLA2 in CD-1 mice; conditions: p.o.; at +10 min
Method: The ability of the compounds of the invention to inhibit paw edema induced by the exogenous administration of PLA2 is measured in the in vivo PLA2 murine paw edema assay.
Non-fasted, male CD-1 mice (8 weeks old; 31-36 grams) are placed in plastic boxes in groups of six. The right hind paw volume is measured using mercury plethysmography (zero time). Compounds are dosed orally (0.5 mL of 0.5% Tween-80) 1 or 3 hours prior to PLA2 injection or intravenously (0.2 mL in 0.3% dimethylsulfoxide/saline) 3 minutes prior to PLA2 injection. A solution of purified PLA2, from the diamond back cotton mouth snake (A. piscivorus piscivorus) is prepared in saline at a concentration of 6 μg/mL. Fifty (50) μL (0.3 μg) of this PLA2 solution is injected subcutaneously into the right hind paw with a plastic 1 mL plastic syringe (27 gauge, 1" needle). Paw volume of the injected paw is measured again at 10 minutes, 30 minutes and 60 minutes after PLA2 injection. Animals are euthanized with CO2 at the completion of the study.
The paw edema is calculated by subtracting the zero time volume from the volume recorded at each time period. Mean paw edema for each treatment group is then calculated and expressed as (μL±S.E.). Drug effects are expressed as a percent change from control (vehicle) values. Statistical significance is determined by a one-way analysis of variance with LSD comparison to control (p<0.05). ED50 's are determined using […].

TPA-induced ear edema = assay: 12-o-tetradecanoylphorbol acetate (TPA)-induced murine ear edema assay; format: in vivo, mouse (Swiss Webster); conditions: TPA; topical, 200 μg, vehicle acetone
Method: The ability of the compounds of the invention to inhibit inflammatory responses is examined in the in vivo arachidonic acid (AA)/12-o-tetradecanoylphorbol acetate (TPA)-induced murine ear edema assay.
Swiss Webster female mice (Buckshire), approximately 8 weeks old are placed into plastic boxes in groups of six. Eight groups of mice receive AA topically on the right ear, and another 8 groups receive TPA topically on the right ear. AA and TPA are dissolved in acetone at concentrations of 100 mg/ml and 100 μg/ml respectively. The phlogistics are applied to the right ear by the means of an automatic pipet. Volumes of 10 μl are applied to the inner and outer surfaces of the ear. Each mouse receives either 2 mg/ear AA or 2 μg/ear TPA. The left ear (control) receives acetone delivered in the same manner. Topical and subcutaneous dosing regimens are as follows 1) drugs are given 30 minutes prior to AA treatment and 2) drugs are given 30 minutes after treatment with TPA.
Measurements are taken with Oditest calipers, 0-10 mm with 0.01 graduations. The right and left ears are measured after 1 hr AA-induced inflammation and 4 hours after TPA-induced inflammation.
The difference between right and left ear thickness is calculated and the significance is determined by a one way analysis of variance with Dunnett's comparisons to control (P=0.05). Drug effects are expressed as a percent change from control values: [formula]

[3] = Mus musculus, Peritoneal macrophage, zymosan stimulation
[4] = zymosan stimulation, dose not given
[5] = Mus musculus, Peritoneal macrophage, zymosan stimulation, 0.2 μM
[6] = Mus musculus, Peritoneal macrophage, reference compounds, 95% confidence limits on next line, read-out: IC50 PGE2

| inhibition at 10 µM (human platelet PLA2) [%] | inhibition at 10 µM [1] [%] | Compound | inhibition at 0.1 µM (cyclooxygenase (PGE2); [3]) [%] | inhibition at 0.5 µM (cyclooxygenase (PGE2); [3]) [%] | inhibition at 0.1 µM (5-lipoxygenase (LTC4); [3]) [%] | inhibition at 0.5 µM (5-lipoxygenase (LTC4); [3]) [%] | further results |
| --- | --- | --- | --- | --- | --- | --- | --- |
| – | – | CCCCCCCCCCC[C@@H]1C[C@@H]1CCCCC(=O)C1=C(O)COC1=O (relative stereo) [Example 55] | 39.2 | 74.3 | 80.3 | 64.2 | – |
| 29.7 | 44.4 | CC(C)(C)c1ccc(CCCCCCCCCC(=O)C2=C(O)COC2=O)cc1 [Example 43, 4-Hydroxy-3-[10-[4-(1,1-dimethylethyl)phenyl]1-oxodecyl]-2(5H)-furanone] | 54 | 92 | 71 | 96 | – |
| 96.5 | 91 | CCCCCCCC/C=C\CCCCCCCCNC(=O)OC(CCC(=O)C1=C(O)COC1=O)COC/C=C(\C)CCC=C(C)C (stereo not shown) [Example 40] | – | – | – | – | IC50 (cyclooxygenase (PGE2); Mus musculus, Peritoneal macrophage, zymosan stimulation, read-out: PGE2 zymosan IC50): 800 nM; PGE2 zymosan % Inhibition (cyclooxygenase (PGE2); [4]): 37%; IC50 (5-lipoxygenase (LTC4); Mus musculus, Peritoneal macrophage, zymosan stimulation, read-out: LTC4 zymosan IC50): 800 nM; LTC4 zymosan % Inhibition (5-lipoxygenase (LTC4); [4]): 87% |
| – | – | Luffarrellolide [reference compound] | – | – | – | – | ED50 at +10 min. [2]: Not Active |
| 63 | 55.6 | O=C(CCCCCCCCCc1ccc(C(F)(F)F)cc1)C1=C(O)COC1=O [Example 45, 4-Hydroxy-3[10-(4-trifluoromethyl)phenyl]-2(5H)-furanone] | – | – | – | – | inhibition at 0.2 µM (cyclooxygenase (PGE2); [5]): 45%; inhibition at 0.2 µM (5-lipoxygenase (LTC4); [5]): 34.5% |
| 83 | 88 | CCCCCCCC[C@@H]1C[C@@H]1CCCCCCCC(=O)C1=C(O)COC1=O (relative stereo) [Example 19, (Z)-4-Hydroxy-3-(1-oxo-8-(2'-octylcyclopropyl)octanyl)-2(5H)-furanone] | – | 68.4 | – | 37.5 | – |
| 16.1 | 37 | O=C(CCCCCCCCCc1ccc(Br)cc1)C1=C(O)COC1=O [Example 44, 4-Hydroxy-3-[10-(4-bromophenyl)-1-oxodecyl]-2(5H)-furanone] | -20 | 88 | 58 | 94 | – |
| 1.7 | 6.7 | O=C(CCCCOc1ccc(Cl)cc1)C1=C(O)CSC1=O [Example 49, 4-Hydroxy-3-[5-(4-chlorophenoxy)-1-oxopentyl]-2(5H)-thiophenone] | – | -11.8 | – | -19.7 | – |
| 37.4 | 21 | CCCCCCNC(=O)OCC(CCC(=O)C1=C(O)COC1=O)OC(=O)NCCCCCC (stereo not shown) [Example 30, Hexylcarbamic acid 5-(2,5-dihydro-4-hydroxy-2-oxo-3-furanyl)-5-oxo-1,2-pentanediyl ester] | – | – | – | – | inhibition at 1 µM (cyclooxygenase (PGE2); [3]): 45.8%; inhibition at 1 µM (5-lipoxygenase (LTC4); [3]): 41.5% |
| 6.6 | 22 | O=C(CCCCCCCCCc1ccc(Cl)c(Cl)c1)C1=C(O)COC1=O [Example 42, 4-Hydroxy-3-[10-(3,4-dichlorophenyl)-1-oxodecyl]-2(5H)-furanone] | -8 | 97 | 58 | 70 | – |
| 80.9 | 18.8 | CCCCCCCC/C=C\CCCCCCCC(=O)OCCCC(=O)C1=C(O)COC1=O [Example 38, (Z)-9-Octadecanoic acid 4-(2,5-dihydro-4-hydroxy-2-oxo-3-furanyl)-4-oxobutanoic ester] | – | – | – | – | inhibition at 1 µM (cyclooxygenase (PGE2); [3]): 75.8%; inhibition at 1 µM (5-lipoxygenase (LTC4); [3]): 46.4%; Topical % Inhibition at 200 μg (TPA-induced ear edema): 23% |
| 12 | 13 | O=C(CCCCCCCCCc1ccc(Cl)cc1)C1=C(O)COC1=O [Example 41, 4-Hydroxy-3-[10-(4-chlorophenyl)-1-oxodecyl]-2(5H)-furanone] | 29 | 97 | 61 | 90 | – |
| – | – | CC(Cc1ccc(O)c(O)c1)C(C)Cc1ccc(O)c(O)c1 (stereo not shown) [NDGA, reference compound] | – | – | – | – | IC50 (cyclooxygenase (PGE2); [6]): 2150 nM; IC50 (5-lipoxygenase (LTC4); Mus musculus, Peritoneal macrophage, reference compounds, 95% confidence limits on next line, read-out: IC50 LTC4): […] |
| – | – | CCCC[C@@H]1C[C@@H]1CCCCCCCC(=O)C1=C(O)COC1=O (relative stereo) [Example 54, 4-Hydroxy-3-[(Z)-8-(2-butylcyclopropyl)-1-oxooctyl]-2(5H)-furanone] | 49.5 | – | 59.3 | – | – |
| – | – | CCCCCC#CCC#CCC#CCC#CCCCC(=O)O [ETYA, reference compound] | – | – | – | – | IC50 (cyclooxygenase (PGE2); [6]): 1260 nM |
